Results published in BindingDB's records for patent US20250177582 (Philochem, 2025).

How the values were obtained:
[1] = biological target: T1, Prolyl endopeptidase FAP (Mus musculus, UniProt P97321); assay: Inhibition Assay
T1 sequence (P97321 whole entry): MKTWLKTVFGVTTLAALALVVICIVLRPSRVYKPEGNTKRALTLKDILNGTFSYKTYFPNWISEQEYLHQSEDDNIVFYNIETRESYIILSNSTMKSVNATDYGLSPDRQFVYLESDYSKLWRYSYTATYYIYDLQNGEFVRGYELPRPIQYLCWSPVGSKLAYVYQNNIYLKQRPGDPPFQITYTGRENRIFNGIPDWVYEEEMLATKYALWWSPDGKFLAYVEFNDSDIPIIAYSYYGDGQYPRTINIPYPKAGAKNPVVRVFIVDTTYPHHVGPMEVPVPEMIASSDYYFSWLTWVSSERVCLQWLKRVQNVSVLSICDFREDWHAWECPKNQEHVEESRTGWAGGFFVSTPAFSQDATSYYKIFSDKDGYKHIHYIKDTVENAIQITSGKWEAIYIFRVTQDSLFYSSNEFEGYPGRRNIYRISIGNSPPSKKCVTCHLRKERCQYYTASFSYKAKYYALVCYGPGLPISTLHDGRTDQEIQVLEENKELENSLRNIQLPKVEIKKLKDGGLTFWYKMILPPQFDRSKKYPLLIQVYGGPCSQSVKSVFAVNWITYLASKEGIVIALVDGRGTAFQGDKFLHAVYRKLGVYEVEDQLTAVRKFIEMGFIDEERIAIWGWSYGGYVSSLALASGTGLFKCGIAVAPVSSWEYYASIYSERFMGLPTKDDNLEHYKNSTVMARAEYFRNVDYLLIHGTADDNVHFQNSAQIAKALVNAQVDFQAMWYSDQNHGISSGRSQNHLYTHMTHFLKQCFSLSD
Procedure: (§1) Inhibition assay of FAP. The compounds were precisely weighed (range between […]) on a micro-scale (HuberLab, Sartorius QUINTIX35-1S) and dissolved in DMSO to prepare stock solutions at 1 mM. Stock solutions were further diluted with FAP activation buffer (50 mM Tris, 100 mM NaCl, 1 mM EDTA, pH=7.4) to a final DMSO concentration of 10% v/v. 10 μL of each inhibitor were serially diluted in a 384 well plate (grenier-bio one, PS, F-bottom, Black, non-binding) with 10 μL of 10% DMSO FAP buffer (1:1 dilution). FAP (human and murine) was diluted to the desired concentration with FAP activation buffer and added to the serial dilution of inhibitor (10 μL for each well). Each protein-inhibitor solution was incubated for 30 minutes at room temperature. Each measurement was performed with an enzyme concentration (FAP) lower than the expected IC50. A 60 μM solution of substrate (Z-Gly-Pro-AMC) in FAP activation buffer (<1% DMSO) was added to the plate (10 μL for each well). The reaction was incubated from 1 minute to 48 hours at room temperature (22° C.-25° C.). The emission was read at 465 nm (excitation wavelength 360 nm) for 40 μs by Tecan Spark (s.n. 1808004082). […]

[2] = biological target: T2, Prolyl endopeptidase FAP (Homo sapiens, UniProt Q12884); assay: Inhibition Assay
T2 sequence (Q12884 whole entry): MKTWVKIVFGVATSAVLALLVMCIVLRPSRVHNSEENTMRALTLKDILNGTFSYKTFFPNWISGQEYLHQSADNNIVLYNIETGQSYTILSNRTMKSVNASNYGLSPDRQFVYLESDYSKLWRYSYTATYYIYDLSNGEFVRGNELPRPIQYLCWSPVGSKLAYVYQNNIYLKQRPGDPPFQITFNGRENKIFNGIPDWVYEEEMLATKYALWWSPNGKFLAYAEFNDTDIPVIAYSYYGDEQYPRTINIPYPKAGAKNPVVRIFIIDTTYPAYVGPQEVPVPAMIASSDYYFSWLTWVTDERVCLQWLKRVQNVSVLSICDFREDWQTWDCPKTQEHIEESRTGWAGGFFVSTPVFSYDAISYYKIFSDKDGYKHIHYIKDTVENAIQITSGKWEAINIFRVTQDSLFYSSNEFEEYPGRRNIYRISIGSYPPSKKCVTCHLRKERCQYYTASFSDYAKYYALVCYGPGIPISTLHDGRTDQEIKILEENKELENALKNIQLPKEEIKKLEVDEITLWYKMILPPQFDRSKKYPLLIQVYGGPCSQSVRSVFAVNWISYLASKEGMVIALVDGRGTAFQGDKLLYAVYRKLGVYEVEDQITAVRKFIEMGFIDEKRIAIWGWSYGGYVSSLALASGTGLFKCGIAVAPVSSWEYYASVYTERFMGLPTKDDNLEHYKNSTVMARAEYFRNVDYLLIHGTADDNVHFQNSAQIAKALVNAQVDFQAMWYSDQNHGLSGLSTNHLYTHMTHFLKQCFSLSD
Procedure: as §1

**Q.** How did the IC50 [1] turn out when `C#CC[C@H](NC(=O)[C@H](CCCNC(=N)N(C)C)NC(=O)c1coc(CNC(=O)CCC(=O)N2CC(F)(F)C[C@H]2C#N)c1)C(=O)N[C@@H](CCCCN)C(=O)O` [US20250177582, Compound 2] was run?
**A.** 0.0292 µM

**Q.** What about the IC50 [2] of the same compound?
**A.** 0.0441 µM
